Entries after “also recorded” stand apart in the source; their conditions may differ.

In data set [1] the test system is three-week old E. faecalis biofilm. In words: Biofilm disruption assay on infected dentin samples (Example 2). It counts as cell-based, Enterococcus faecalis. The note with it: immersion for 5 minutes. As to the method: Unidentified intact human teeth were collected, stored in 0.1% thymol solution at 4° C., and used within 6 months after obtaining local Institutional Review Board approval (IRB #1409251353). A standardized radicular dentin sample (4×4×1 mm^3) was obtained from each root using a slow diamond saw (IsoMet, Buehler, Lake Bluff, Ill.) under continuous distilled water irrigation. The pulpal side of each specimen was wet-finished with silicon carbide abrasive papers (500-2400 grit, Struers, Cleveland, Ohio). The polished samples were then sonicated in deionized water for 3 minutes, washed with sterile water, wrapped individually with moist cotton pellets, placed in Whirl-pak bags (Sigma-Aldrich, St Louis, Mo.), gas sterilized with ethylene oxide, and stored at 4° C. until used. E. faecalis (ATCC 29212) was grown initially on anaerobic blood agar plates (CDC, BioMerieux, Durham, N.C.). […] Dentin samples were placed individually in separate wells of a 96-sterile well plate (Fisherbrand, Fischer Scientific) with the pulpal side facing upwards. Then, 10 μl of an overnight E. faecalis culture (10^6 CFU/mL) dispersed in 190 μL of fresh BHI-YE growth media was added to each dentin specimen. […] The CFUs/mL were quantified using an automated colony counter (Synbiosis, Inc., Frederick, Md.). Summary statistics were calculated for the log-transformed data from each group. […]

Data set [2] relates to stem cells from apical papillae and dental pulp stem cells. Conditions: 2% CHX; recent in vitro studies; cited from earlier work.

On to `OCl` [NaOCl, sodium hypochlorite], for which, in data set [1] (1.5% NaOCl), the “antibiofilm effect (log CFU/mL)” value is “significant reduction and complete eradication of E. faecalis biofilm”.

Take `N=C(NCCCCCCNC(=N)NC(=N)Nc1ccc(Cl)cc1)NC(=N)Nc1ccc(Cl)cc1.O=C(O)[C@H](O)[C@@H](O)[C@H](O)[C@H](O)CO.O=C(O)[C@H](O)[C@@H](O)[C@H](O)[C@H](O)CO` [CHX]: the “effects on survival and attachment of stem cells from apical and dental pulp” value in data set [2] was “highly unfavorable effects”. For the same compound, the “antibiofilm effect (log CFU/mL)” value in data set [1] (2% CHX) was “significant reduction in E. faecalis biofilm; also recorded: nearly eliminate the bacterial biofilm”.

Values taken from patent publication US20180263860A1, “DELIVERY SYSTEMS FOR APPLICATION OF ANTIBIOTIC GEL FORMULATION” (Indiana University Research and Technology Corporation, priority 2015, published 2018).
